The values below come from patent publication US20260048076A1, “METHODS FOR DECREASING OR INHIBITING HUMAN L1 RETROTRANSPOSON RNA AND COMPOSITIONS FOR USE THEREIN” (ALTOS LABS, INC., priority 2022, published 2026).

Common to all, as to format: cell-based, human
Data set [1] concerns WRN fibroblasts. The data set is described as follows: Quantitative mass spectrometry proteome analysis in WRN fibroblasts. The protocol:
(§1) Total protein extracts were prepared with RIPA buffer (50mMTris-cl pH 8.0, 5 mM EDTA, 150 mM Nacl, 15 mM Mgcl2, 1% NP-40, 1 mM PMSF and 1× Protease Inhibitor Cocktail (PIC)). Further, a sonication step was included: (30S ON, 30S OFF, 10 cycles with Bioruptor). Equal […] protein extracts were concentrated to […] volume, then diluted in 8M urea in 0.1M Tris-HCl, followed by protein digestion with trypsin, according to the FASP protocol(66). After an overnight digestion, the peptides were eluted from the filters with 25 mM ammonium bicarbonate buffer. The eluted peptides were processed in the desalting step by using Sep-Pag C18 Column (waters) based on the manufacture's instruction. Approximately 200 ng of peptide mixture per sample was analyzed using a timsTOF Pro 2 QTOF mass spectrometer coupled with a nanoElute liquid chromatography system (Bruker Daltonik GmbH, Germany). The sample was injected directly into a RP-C18 Aurora emitter column (75 μm i.d.×250 mm, 1.6 μm, 120 Å pore size) (Ion Opticks, Australia) using a one-column separation method. An 80-min gradient was established using mobile phase A (0.1% FA in H2O) and mobile phase B (0.1% FA in Acetonitrile): 2-25% B for 60 min, 25-37% for 10 min, ramping 37% to 95% in 5 min, and maintaining 95% B for 5 min. The column temperature was set at 50° C. and the flow rate at 250 nl/min. […]

Data set [2] relates to HGPS fibroblasts. The data set is described as follows: Quantitative mass spectrometry proteome analysis in HGPS fibroblasts. The procedure:
as §1

The test system of data set [3] is WRN hMSCs. The data set is described as follows: Comparison of 3TC and L1 translation blocker with L1 RNA depletion in WRN hMSCs (senescence gene qPCR, immuno-FISH, SA-β-gal). The settings on record: 3TC 10 mM, translation inhibitor ASOs 20 nM. The protocol:
(§2) Tail tip fibroblasts (TTFs) were isolated from WT and LAKI mice and cultured at 37° C. in Dulbecco's Modified Eagle Medium (DMEM) (Invitrogen) containing Gluta-MAX, non-essential amino acids, and 10% fetal bovine serum (FBS, Gibco). WT and HGPS human dermal fibroblast were obtained from Coriell Biobank (WT: AG06234, AG10108, AG09309, AG10803, AG03257. HGPS: AG06917, AG11498, AG10578, AG11572, AG06297. APS: AG041100 (LMNA E578V), AG00989 (LMNA R644C), AG00990 (LMNA T10I), AG09233 (unknown mutation). WRN: AG12798; AG24467; AG06300; AG00780; AG05229). For LINE-1 knockdown, cells were incubated with 1 μM FANA ASO dissolved in culture medium (61) every 4 days and collected after two passages for senescent marker expression or immunohistochemistry. 3TC (Sigma-Aldrich) treatments were performed at 10 mM as in De Cecco et al. (11). Translation inhibitor ASOs (miRCURY LNA, Qiagen) were used at a final concentration of 20 nM and transfected with RNAiMAX (Invitrogen, Thermo Fisher Scientific) following manufacturer instructions. […]
(§3) Cells were fixed with 4% formaldehyde in PBS at room temperature (RT) for 10 min. […] Z-stack 3D reconstruction, nuclei segmentation, and fluorescence signal quantification were performed using Imaris (v.8.4.1) using nuclei volume as a reference to normalize fluorescence signals. […]
On the technique in general: Quantitative PCR measures a nucleic acid by following its amplification.

Data set [4] has as its system HGPS hMSCs. The data set is described as follows: Comparison of 3TC and L1 translation blocker with L1 RNA depletion in HGPS hMSCs (senescence gene qPCR, immuno-FISH, SA-β-gal). Conditions: 3TC 10 mM, translation inhibitor ASOs 20 nM. The procedure:
as §2, §3

[FANA] = 2'-fluoro-arabino; d = 2'-deoxy (DNA)

Regarding “A*C*T* T*C*C CTT CTC GCT TC*A*T*T*T* (ACTTCCCTTCTCGCTTCATTT; sugars from the 5' end [FANA]5 d11 [FANA]5, backbone and methylation of C not given here; listed as Homo sapiens) [human L1 2′F-ANA ASO #1, L1-specific 2′F-ANA modified ASO used in all human cell experiments; * denotes 2′F-ANA modified nucleotides]”, the “protein differential expression (quantitative mass spectrometry)” value in data set [1] and in data set [2] was “ameliorated the aged phenotype also at proteome global level” throughout.

Regarding `Nc1ccn([C@@H]2CS[C@H](CO)O2)c(=O)n1` [3TC], the “anti-aging effect (senescence-associated gene expression, H3K9me3, SA-β-gal positive cells)” value in data set [3] is recorded as “less potent anti-aging effect compared to L1 RNA depletion”; in data set [4] it was “no effect”.
